One substance from patent US6875594B2, “Methods of ligating expressed proteins” (The Rockefeller University, priority 1997, dated 2005) can be followed below.

This assay addresses AsiA (Enterobacteria phage T4, UniProt P32267). The note with it: His-tagged σ fragment on Ni2+-NTA beads, imidazole elution.

AsiA, sequence (P32267 whole entry, the tested form may be a part): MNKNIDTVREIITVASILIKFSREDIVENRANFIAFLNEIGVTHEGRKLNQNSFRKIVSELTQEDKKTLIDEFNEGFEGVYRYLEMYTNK
Description: The complementary experiment was done using wild type, untagged AsiA. Instead, a synthetic hexahistidine tag was chemically ligated to the N-terminus of σ568-600 as described herein. AsiA and His-tagged σ fragment were loaded on Ni^2+NTA beads, the beads were washed and eluted with increasing concentrations of imidazole in the buffer.
100 μl reactions contained 15 μl of Ni^2+-NTA agarose (Qiagen), 50-100 pmol σ^70 or σ^70 derivative, 200 pmol AsiAHis, 20 mM Tris-HCl, pH 7.9, 100 mM KCl, 10 mM MgCl2. Reactions were preincubated for 15 min at room temperature, after which the beads were pelleted by brief centrifugation and the supernatant, containing the unbound material was removed. The beads were then washed three times with the same buffer containing 10 mM imidazole, pH 8.0, resuspended in 50 μl of the buffer containing 100 mM imidazole and incubated for additional 15 min at room temperature. The supernatant containing the bound material was then withdrawn. Aliquots of the reactions were then analyzed on 8-25% Phast gels (Pharmacia) and silver stained.

For the substance “His6-Cys-[SCH2]-aminocaproate-σ568-600 [His-tagged σ568-600]”, the “interaction with wild type, untagged AsiA” value is reported as “strong interaction”.
